Test results from US9969719B2, “Substituted 2-hydrogen-pyrazole derivative serving as anticancer drug” (CHIA TAI TIANQING PHARMACEUTICAL GROUP CO., LTD., priority 2015, dated 2018).
Read-outs that look alike come from different tables or passages of the source.

Key:
[1] = test system: human breast cancer cell line MCF-7; type: in vivo
Experimental: The in vivo pharmacodynamic study was carried out in human-based tumor cell line-derived xenografted (CDX) BALB/c nude mice, in which were subcutaneously implanted human breast cancer cell line MCF-7.
. All the cages, matts and water were disinfected before use. All the animals had free access to a standard certified commercial laboratory diet. A total of 100 mice were purchased from Shanghai BK Laboratory Animal Co., LTD for study. An estrogen tablet ([…], sustained release within 60 days) was subcutaneously implanted in the left next abdomen of each mice. After 3 days, the tumor cells (10×10^6 in 0.2 mL of phosphate buffer) were subcutaneously implanted in the right next abdomen of each mice for the tumor growth. The administration started when the average tumor volume reached about 150-200 mm^3. The test compounds were orally administered daily, the doses were shown as Table 5. The tumor volumes were measured with a two-dimensional caliper every three days, the volumes were expressed in cubic millimeters and calculated by the formula V=0.5a×b^2, wherein a and b were the major diameter and minor diameter of the tumor, respectively. Antitumor efficacy was determined by dividing an average increase of the tumor volumes of the animals treated with the compounds by an increase of the tumor volumes of the untreated animals.

MDA-MB-436 cells = assay: MDA-MB-436 cell proliferation (CellTiter-Glo); type: cell-based; conditions: Homo sapiens
Experimental: RPMI 1640 medium, fetal bovine serum, penicillin/streptomycin were purchased from Promega (Madison, Wis.). The MCF-7 cell line and the MDA-MB-436 cell line were purchased from the European Collection of Authenticated Cell Cultures (ECACC). EnVision® Multilabel Plate Reader (PerkinElmer) was used.
(§1) The compounds to be tested were diluted three times using Bravo to the tenth concentration, i.e., diluted from 10 μM to 0.508 nM. A duplicate well test was performed. The medium was added to the middle plate in an amount of 49 μL per well. The gradient dilutions of the compounds were transferred in an amount of 1 μL per well to the middle plate at the corresponding positions, and the mixture was mixed and transferred to the cell plate in an amount of 5 μL per well. The cell plate was incubated in a carbon dioxide incubator for 6 days. Promega CellTiter-Glo reagent was added to the cell plate in an amount of 25 μL per well. The cell plate was incubated at room temperature for 10 minutes to stabilize the luminescence signal. EnVision® Multilabel Plate Reader (PerkinElmer) was used for signal detection.
The IC50 values were obtained by curve fitting using four parameters (obtained from the 205 mode in XLFIT5, iDBS). Table 1 provides the inhibitory activities of the compounds of the invention against the proliferation of MCF-7 cells and MDA-MB-436 cells.

[2] = Study of brain permeability after oral administration; type: in vivo, SD rats
Experimental: SD rats were used as the test animals.
Twelve healthy 7- to 9-week-old adult male SD rats were purchased from Shanghai Slack Laboratory Animal Co., Ltd. A proper amount of the test compound was weighed to prepare a 0.5% methylcellulose suspension at 1 mg/mL. The rats received a single oral dose of 10 mg/kg. 0.5 h, 2 h, 8 h, and 24 hours after the administration, 3 rats were respectively killed, and their whole blood and brain tissues were collected. The plasma was prepared by centrifuging the whole blood (3000 g, 15 minutes, 4° C.). The samples of brain homogenate were prepared by mixing the brain tissues with a mixture of methanol and a phosphate buffer (methanol:phosphate buffer=1:2) as homogenate at a ratio of 5:1. The drug concentration of each sample was determined by LC/MS/MS, and AUC was calculated to evaluate the exposure.

CDK2/cyclin A = target: T1, CDK2/cyclin A (Homo sapiens, UniProt P24941); assay: CDK2/cyclin A Lance Ultra enzyme assay; type: biochemical; conditions: 25 μM ATP, 60 minutes
T1 construct: purchased Life Technologies
Experimental: (§2) The experimental materials included CDK2/cyclin A, CDK4/cyclin D1, CDK6/cyclin D1 (Life Technologies); ULight-labeled polypeptide substrates, i.e., ULight-4E-BP1 and ULight-MBP (PerkinElmer); the europium-labeled antibody against anti-myelin basic protein and europium-labeled rabbit antibody (PerkinElmer); and Envision® Multilabel Plate Reader (PerkinElmer) used for signal detection.
(§3) The compounds to be tested were diluted three times so as to be at ten gradually varied concentrations.
(§4) The gradient dilutions of the compounds were dissolved in enzyme buffer, respectively. The components of the buffer included 50 mM hydroxyethylpiperazine ethanesulfonic acid solution (pH 7.5), 1 mM ethylenediaminetetraacetic acid, 10 mM magnesium chloride, 0.01% Brij-35, and 2 mM dithiothreitol. After the reaction started, the OptiPlate 384-well plate was sealed with top heat-sealing film TopSeal-A and incubated at room temperature for 60 minutes. • The Enzyme Reaction System of CDK4/Cyclin D1
(§5) The stop buffer of the enzyme reaction was prepared by dissolving EDTA in a one-fold dilution of the assay buffer. The reaction was terminated at room temperature for 5 minutes. To each of the reaction systems of CDK2/cyclin A, CDK4/cyclin D1 and CDK6/cyclin D1 was added 5 μL assay mixture (provided with antibody the europium-labeled against anti-myelin basic protein and the europium-labeled rabbit antibody, respectively). They were incubated at room temperature for 60 minutes. The reaction signals were detected by the EnVision instrument according to the principle of time-resolved fluorescence resonance energy transfer.

CDK4/cyclin D1 = target: T2, CDK4/cyclin D1 (Homo sapiens, UniProt P11802); assay: CDK4/cyclin D1 Lance Ultra enzyme assay; type: biochemical; conditions: 350 μM ATP, 180 minutes
T2 construct: purchased Life Technologies
Experimental: as §2, §3
as §4, with “The” for “The gradient”, “180” for “60”, “CDK6/Cyclin” for “CDK4/Cyclin”
as §5

MCF-7 cells = assay: MCF-7 cell proliferation (CellTiter-Glo, 6 days); type: cell-based, human; conditions: for IC50: Homo sapiens, MCF7, proliferation, 6 days; for MCF-7/MDA-MB-436: ratio of the proliferation IC50 values
Experimental: EnVision® Multilabel Plate Reader (PerkinElmer) was used.
MCF-7 cells were inoculated in a black 384-well plate by adding 45 μL of the cell suspension (containing 200 of MCF-7 cells) to each of the wells. The plate was incubated overnight in a carbon dioxide incubator.
as §1, with “A” for “The compounds to be tested were diluted three times using Bravo to the tenth concentration, i.e., diluted from 10 μM to 0.508 nM. A”

CDK6/cyclin D1 = target: T3, CDK6/cyclin D1 (Homo sapiens, UniProt Q00534); assay: CDK6/cyclin D1 Lance Ultra enzyme assay; type: biochemical; conditions: 250 μM ATP, 180 minutes
T3 construct: purchased Life Technologies
Experimental: as §2, §3
as §4, with “The” for “The gradient”, “180” for “60”, “minutes.” for “minutes. • The Enzyme Reaction System of CDK4/Cyclin D1”
as §5

[3] = Caco-2 cell bi-directional permeability assessment; conditions: human, Caco-2, pH 7.4
Experimental: (§6) The standard experimental conditions were as follows: • Test concentration: 2 μM (DMSO≤1%); • Number of replication: n=2; • Direction: bi-directional transportation, including two directions, i.e., A→B and B→A; • Incubation time: single time point, 2 hours; • Transport buffer: HBSS, pH 7.4; • Incubation conditions: 37° C., 5% CO2.
(§7) After the incubation, sample solutions taken from the dosing wells and the receiving wells were immediately mixed with a cold acetonitrile solution containing the internal standard. Concentrations of the test compounds in all samples (including the initial dosing solutions, the supernatants of the dosing wells and the receiving solutions) were determined by a LC/MS/MS method. The apparent permeability coefficients, the efflux ratios and other parameters were calculated.

Caco-2 monolayer cells [4] = assay: Caco-2 cell bi-directional permeability assessment
Experimental: as §6, §7

Caco-2 monolayer cells [5] = test system: Caco-2 monolayer cells
Experimental: as §6, §7

in vitro = conditions: human, Caco-2, pH 7.4
Experimental: as §6, §7

[6] = 10 mg/kg oral, time point 0.5 h
[7] = human, Caco-2, 2 h, 2 μM, pH 7.4

T3 sequence (Q00534 whole entry): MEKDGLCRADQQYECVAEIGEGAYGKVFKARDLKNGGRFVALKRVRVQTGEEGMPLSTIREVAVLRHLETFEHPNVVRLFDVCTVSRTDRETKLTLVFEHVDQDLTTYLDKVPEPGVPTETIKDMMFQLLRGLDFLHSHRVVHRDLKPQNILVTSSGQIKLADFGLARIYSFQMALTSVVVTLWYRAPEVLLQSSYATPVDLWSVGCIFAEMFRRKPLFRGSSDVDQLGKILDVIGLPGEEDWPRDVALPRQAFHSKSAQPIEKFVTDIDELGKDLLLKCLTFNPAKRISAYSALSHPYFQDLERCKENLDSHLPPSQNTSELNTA
T3 sequence (P24385 whole entry partner): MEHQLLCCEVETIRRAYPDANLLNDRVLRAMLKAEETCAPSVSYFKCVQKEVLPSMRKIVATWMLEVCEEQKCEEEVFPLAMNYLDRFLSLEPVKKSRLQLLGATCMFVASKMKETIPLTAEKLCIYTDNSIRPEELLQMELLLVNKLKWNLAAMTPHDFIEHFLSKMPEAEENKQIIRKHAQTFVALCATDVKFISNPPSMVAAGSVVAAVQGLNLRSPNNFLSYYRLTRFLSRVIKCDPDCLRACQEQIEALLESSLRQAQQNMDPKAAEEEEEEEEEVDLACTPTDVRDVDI
T2 sequence (P11802 whole entry): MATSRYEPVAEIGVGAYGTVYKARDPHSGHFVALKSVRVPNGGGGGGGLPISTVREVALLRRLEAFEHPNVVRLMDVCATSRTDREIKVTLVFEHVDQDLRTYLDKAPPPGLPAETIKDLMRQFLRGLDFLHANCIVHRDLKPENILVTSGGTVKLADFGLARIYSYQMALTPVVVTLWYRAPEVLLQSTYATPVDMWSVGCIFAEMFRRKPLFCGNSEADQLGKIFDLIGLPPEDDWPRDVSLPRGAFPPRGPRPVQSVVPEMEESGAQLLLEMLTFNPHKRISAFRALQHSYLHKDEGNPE
T2 sequence (P24385 whole entry partner): as the sequence (P24385 whole entry partner) above

**Q.** With `CC(C)c1c2cc(-c3nc(Nc4ccc(N5CCN(CCC#N)CC5)cn4)ncc3F)ccc2nn1C` [Example 7, 3-[4-[6-[[5-fluoro-4-(3-isopropyl-2-methyl-2H-indazol-5-yl)pyrimidin-2-yl]amino]-3-pyridyl]piperazin-1-yl]propanenitrile] as the molecule, how does the Tomor volumes ([1]; 50.0 mg/kg orally daily, 0 day) read?
**A.** 187 mm^3

**Q.** What about the Tomor volumes ([1]; 50.0 mg/kg orally daily, 7th day) of the same molecule?
**A.** 271 mm^3

**Q.** And the Tomor volumes ([1]; 50.0 mg/kg orally daily, 14th day)?
**A.** 318 mm^3

**Q.** What about the Tomor volumes ([1]; 50.0 mg/kg orally daily, 21st day) of the same molecule?
**A.** 350 mm^3

**Q.** What about the “antitumor activities in the CDX model of MCF-7 breast cancer” value ([1]; in words) of the same molecule?
**A.** significant antitumor activities

**Q.** And the IC50 (MDA-MB-436 cells)?
**A.** 1160 nM

**Q.** What about the “exposure in brain after 8 hours” value ([2]; 10 mg/kg oral, in words) of the same molecule?
**A.** significantly decreased

**Q.** And the Exposure in brain [2, 6]?
**A.** 1564 nmol/kg

**Q.** What about the Exposure in brain ([2]; 10 mg/kg oral, time point 2 h) of the same molecule?
**A.** 2922 nmol/kg

**Q.** And the Exposure in brain ([2]; 10 mg/kg oral, time point 8 h)?
**A.** 307 nmol/kg

**Q.** What about the “exposure in brain tissue compared with the reference compounds” value ([2]; rat, versus Palbociclib and LY2835219, in words, b797: 0.5 hour and 2 hour) of the same molecule?
**A.** higher exposure

**Q.** What about the IC50 (CDK2/cyclin A) of the same molecule?
**A.** 12 nM

**Q.** What about the IC50 (CDK4/cyclin D1) of the same molecule?
**A.** 1.82 nM

**Q.** What about the IC50 (MCF-7 cells) of the same molecule?
**A.** 37.2 nM

**Q.** And the MCF-7/MDA-MB-436 (MCF-7 cells)?
**A.** 31.1

**Q.** And the “selectivity in inhibiting the proliferation of estrogen receptor positive breast cancer cells (MCF-7/MDA-MB-436)” value (MCF-7 cells; versus LY2835219, in words)?
**A.** higher selectivity

**Q.** And the “inhibitory activities against the proliferation of MCF-7 cells compared with the reference compounds” value (MCF-7 cells; versus Palbociclib and LY2835219, in words)?
**A.** higher inhibitory activities

**Q.** And the IC50 (CDK6/cyclin D1)?
**A.** 4.52 nM

**Q.** And the Papp A→B at 2 h, 2 μM [3]?
**A.** 6.55 ×10⁻⁶ cm/s

**Q.** And the Papp B→A at 2 h, 2 μM [3]?
**A.** 3.38 ×10⁻⁶ cm/s

**Q.** And the efflux ratio at 2 h, 2 μM [3]?
**A.** 0.52

**Q.** What about the “Classification Permeability” value (Caco-2 monolayer cells [4]; Caco-2) of the same molecule?
**A.** High

**Q.** What about the “Classification Substrates of efflux transporters” value (Caco-2 monolayer cells [4]; Caco-2) of the same molecule?
**A.** Unlikely

**Q.** What about the “permeability compared with the reference compounds” value (Caco-2 monolayer cells [4]; Caco-2, versus Palbociclib and LY2835219, in words) of the same molecule?
**A.** higher permeability

**Q.** For `CC(=O)c1c(C)c2cnc(Nc3ccc(N4CCNCC4)cn3)nc2n(C2CCCC2)c1=O` [Palbociclib, reference compound], which Tomor volumes ([1]; 45.0 mg/kg orally daily, 0 day) is on record?
**A.** 187 mm^3

**Q.** What about the Tomor volumes ([1]; 45.0 mg/kg orally daily, 7th day) of the same molecule?
**A.** 264 mm^3

**Q.** And the Tomor volumes ([1]; 45.0 mg/kg orally daily, 14th day)?
**A.** 387 mm^3

**Q.** And the Tomor volumes ([1]; 45.0 mg/kg orally daily, 21st day)?
**A.** 633 mm^3

**Q.** What about the “tolerability of high doses in the animals” value ([1]; mouse, in vivo) of the same molecule?
**A.** intolerable

**Q.** What about the IC50 (MDA-MB-436 cells) of the same molecule?
**A.** 9840 nM

**Q.** And the Exposure in brain [2, 6]?
**A.** 80 nmol/kg

**Q.** And the Exposure in brain ([2]; 10 mg/kg oral, time point 2 h)?
**A.** 329 nmol/kg

**Q.** What about the Exposure in brain ([2]; 10 mg/kg oral, time point 8 h) of the same molecule?
**A.** 184 nmol/kg

**Q.** And the “Classification Permeability” value (Caco-2 monolayer cells [5]; Caco-2)?
**A.** Medium

**Q.** What about the “Average apparent permeability coefficient A to B” value (Caco-2 monolayer cells [5]; [7]) of the same molecule?
**A.** 9.18 10^−6 cm/s

**Q.** And the “Average apparent permeability coefficient B to A” value (Caco-2 monolayer cells [5]; [7])?
**A.** 7.51 10^−6 cm/s

**Q.** And the Papp A→B at 2 h, 2 μM (in vitro)?
**A.** 0.85 ×10⁻⁶ cm/s

**Q.** What about the Papp B→A at 2 h, 2 μM (in vitro) of the same molecule?
**A.** 16.5 ×10⁻⁶ cm/s

**Q.** What about the IC50 (MCF-7 cells) of the same molecule?
**A.** 87 nM

**Q.** And the MCF-7/MDA-MB-436 (MCF-7 cells)?
**A.** 113
